# According to the supplement of paper PMC10307832:
# Legend:
# Assay in all cases: relative viability (nuclei count vs DMSO), 5 days (fraction); higher = more cells survive
# BEN = tested on: BEN
# Method in brief: (§1)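 The day after seeding in 1536-well plates, lung cancer cell lines were treated by pin tool with a single drug, or with a fixed anchor-drug dose together with five library-drug doses (not always all listed) in √10 steps. After 5 days, a combined fix-and-stain solution (final 0.05% Triton X-100, 1% formaldehyde, 1 ug/ml Hoechst) was added. Nuclei counted on 4× images gave relative viability as treated counts over vehicle counts, reported as the median of duplicate plates.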
# EKVX = tested on: EKVX
# Method in brief: as §1
# HARA = tested on: HARA
# Method in brief: as §1
# HCC-366 = tested on: HCC-366
# Method in brief: as §1
# HCC-827 = tested on: HCC-827
# Method in brief: as §1
# LC-2-ad = tested on: LC-2-ad
# Method in brief: as §1
# LOU-NH91 = tested on: LOU-NH91
# Method in brief: as §1
# NCI-H1355 = tested on: NCI-H1355
# Method in brief: as §1
# NCI-H1395 = tested on: NCI-H1395
# Method in brief: as §1
# NCI-H1437 = tested on: NCI-H1437
# Method in brief: as §1
# NCI-H1734 = tested on: NCI-H1734
# Method in brief: as §1
# NCI-H2009 = tested on: NCI-H2009
# Method in brief: as §1
# NCI-H2087 = tested on: NCI-H2087
# Method in brief: as §1
# NCI-H2170 = tested on: NCI-H2170
# Method in brief: as §1
# NCI-H2228 = tested on: NCI-H2228
# Method in brief: as §1
# NCI-H2342 = tested on: NCI-H2342
# Method in brief: as §1
# NCI-H2405 = tested on: NCI-H2405
# Method in brief: as §1
# NCI-H596 = tested on: NCI-H596
# Method in brief: as §1
# NCI-H647 = tested on: NCI-H647
# Method in brief: as §1
# NCI-H661 = tested on: NCI-H661
# Method in brief: as §1
# SK-LU-1 = tested on: SK-LU-1
# Method in brief: as §1
# SK-MES-1 = tested on: SK-MES-1
# Method in brief: as §1
smiles,measurement,setting,value
C[C@@H]1CN(CC(=O)Nc2ccc3c(c2)Cc2cccc(-c4cc(=O)cc(N5CCOCC5)o4)c2S3)C[C@H](C)O1 + COc1cc2c(Oc3ccc(NC(=O)C4(C(=O)Nc5ccc(F)cc5)CC4)cc3F)ccnc2cc1OCCCN1CCOCC1 [Foretinib] (partner 0.25 µM),relative viability,BEN; first compound 0.04 µM,0.615
same,relative viability,BEN; first compound 0.1265 µM,0.552
same,relative viability,BEN; first compound 0.4 µM,0.593
same,relative viability,BEN; first compound 4 µM,0.623
same,relative viability,EKVX; first compound 0.04 µM,0.947
same,relative viability,EKVX; first compound 0.1265 µM,1.16
same,relative viability,EKVX; first compound 0.4 µM,0.927
same,relative viability,EKVX; first compound 4 µM,0.76
same,relative viability,HARA; first compound 0.1265 µM,0.757
same,relative viability,HARA; first compound 0.4 µM,0.891
same,relative viability,HARA; first compound 4 µM,0.879
same,relative viability,HCC-366; first compound 0.04 µM,0.922
same,relative viability,HCC-366; first compound 0.1265 µM,0.929
same,relative viability,HCC-366; first compound 0.4 µM,1.1
same,relative viability,HCC-366; first compound 4 µM,0.913
same,relative viability,HCC-827; first compound 0.04 µM,1.08
same,relative viability,HCC-827; first compound 0.1265 µM,1
same,relative viability,HCC-827; first compound 0.4 µM,1.08
same,relative viability,HCC-827; first compound 4 µM,0.939
same,relative viability,LC-2-ad; first compound 0.04 µM,0.863
same,relative viability,LC-2-ad; first compound 0.1265 µM,0.921
same,relative viability,LC-2-ad; first compound 0.4 µM,0.913
same,relative viability,LC-2-ad; first compound 4 µM,0.874
same,relative viability,LOU-NH91; first compound 0.04 µM,1
same,relative viability,LOU-NH91; first compound 0.1265 µM,0.96
same,relative viability,LOU-NH91; first compound 0.4 µM,0.943
same,relative viability,LOU-NH91; first compound 4 µM,0.897
same,relative viability,NCI-H1355; first compound 0.04 µM,0.95
same,relative viability,NCI-H1355; first compound 0.1265 µM,0.964
same,relative viability,NCI-H1355; first compound 0.4 µM,0.951
same,relative viability,NCI-H1355; first compound 4 µM,0.858
same,relative viability,NCI-H1395; first compound 0.04 µM,1.06
same,relative viability,NCI-H1395; first compound 0.1265 µM,1.07
same,relative viability,NCI-H1395; first compound 0.4 µM,0.982
same,relative viability,NCI-H1395; first compound 4 µM,0.866
same,relative viability,NCI-H1437; first compound 0.04 µM,1.25
same,relative viability,NCI-H1437; first compound 0.1265 µM,1.26
same,relative viability,NCI-H1437; first compound 0.4 µM,1.29
same,relative viability,NCI-H1437; first compound 4 µM,0.957
same,relative viability,NCI-H1734; first compound 0.04 µM,0.881
same,relative viability,NCI-H1734; first compound 0.1265 µM,0.851
same,relative viability,NCI-H1734; first compound 0.4 µM,0.789
same,relative viability,NCI-H1734; first compound 4 µM,0.976
same,relative viability,NCI-H2009; first compound 0.04 µM,1.35
same,relative viability,NCI-H2009; first compound 0.1265 µM,1.18
same,relative viability,NCI-H2009; first compound 0.4 µM,1.15
same,relative viability,NCI-H2009; first compound 4 µM,0.967
same,relative viability,NCI-H2087; first compound 0.04 µM,1.15
same,relative viability,NCI-H2087; first compound 0.1265 µM,0.954
same,relative viability,NCI-H2087; first compound 0.4 µM,1.05
same,relative viability,NCI-H2087; first compound 4 µM,0.801
same,relative viability,NCI-H2170; first compound 0.04 µM,1.08
same,relative viability,NCI-H2170; first compound 0.1265 µM,0.97
same,relative viability,NCI-H2170; first compound 0.4 µM,0.648
same,relative viability,NCI-H2170; first compound 4 µM,1
same,relative viability,NCI-H2228; first compound 0.04 µM,0.82
same,relative viability,NCI-H2228; first compound 0.1265 µM,0.689
same,relative viability,NCI-H2228; first compound 0.4 µM,0.726
same,relative viability,NCI-H2228; first compound 4 µM,0.816
same,relative viability,NCI-H2342; first compound 0.04 µM,0.959
same,relative viability,NCI-H2342; first compound 0.1265 µM,0.95
same,relative viability,NCI-H2342; first compound 0.4 µM,0.973
same,relative viability,NCI-H2342; first compound 4 µM,0.908
same,relative viability,NCI-H2405; first compound 0.04 µM,1.02
same,relative viability,NCI-H2405; first compound 0.1265 µM,1.08
same,relative viability,NCI-H2405; first compound 0.4 µM,1.03
same,relative viability,NCI-H2405; first compound 4 µM,1.03
same,relative viability,NCI-H596; first compound 0.04 µM,0.926
same,relative viability,NCI-H596; first compound 0.1265 µM,0.835
same,relative viability,NCI-H596; first compound 0.4 µM,0.909
same,relative viability,NCI-H596; first compound 4 µM,0.87
same,relative viability,NCI-H647; first compound 0.04 µM,1.34
same,relative viability,NCI-H647; first compound 0.1265 µM,1.17
same,relative viability,NCI-H647; first compound 0.4 µM,1.2
same,relative viability,NCI-H647; first compound 4 µM,0.793
same,relative viability,NCI-H661; first compound 0.04 µM,0.776
same,relative viability,NCI-H661; first compound 0.1265 µM,1.04
same,relative viability,NCI-H661; first compound 0.4 µM,0.953
same,relative viability,NCI-H661; first compound 4 µM,0.927
same,relative viability,SK-LU-1; first compound 0.04 µM,0.813
same,relative viability,SK-LU-1; first compound 0.1265 µM,0.831
same,relative viability,SK-LU-1; first compound 0.4 µM,0.859
same,relative viability,SK-LU-1; first compound 4 µM,0.565
same,relative viability,SK-MES-1; first compound 0.04 µM,1.15
same,relative viability,SK-MES-1; first compound 0.1265 µM,0.822
same,relative viability,SK-MES-1; first compound 0.4 µM,0.76
same,relative viability,SK-MES-1; first compound 4 µM,0.746
CC(C)Oc1cc(Nc2nc(N[C@@H](C)c3ccc(F)cn3)ncc2Cl)n[nH]1 [AZ23] + COc1cc2c(Oc3ccc(NC(=O)C4(C(=O)Nc5ccc(F)cc5)CC4)cc3F)ccnc2cc1OCCCN1CCOCC1 [Foretinib] (partner 0.25 µM),relative viability,BEN; first compound 0.01 µM,0.625
same,relative viability,BEN; first compound 0.03162 µM,0.807
same,relative viability,BEN; first compound 0.3162 µM,0.772
same,relative viability,EKVX; first compound 0.01 µM,0.782
same,relative viability,EKVX; first compound 0.03162 µM,0.988
same,relative viability,EKVX; first compound 0.3162 µM,0.565
same,relative viability,HARA; first compound 0.03162 µM,1.04
same,relative viability,HARA; first compound 0.3162 µM,0.783
same,relative viability,HCC-366; first compound 0.01 µM,1.13
same,relative viability,HCC-366; first compound 0.03162 µM,0.995
same,relative viability,HCC-366; first compound 0.3162 µM,0.933
same,relative viability,HCC-827; first compound 0.01 µM,1.05
same,relative viability,HCC-827; first compound 0.03162 µM,1.09
same,relative viability,HCC-827; first compound 0.3162 µM,1.11
same,relative viability,LC-2-ad; first compound 0.01 µM,1.07
same,relative viability,LC-2-ad; first compound 0.03162 µM,0.993
same,relative viability,LC-2-ad; first compound 0.3162 µM,1.02
same,relative viability,LOU-NH91; first compound 0.01 µM,0.941
same,relative viability,LOU-NH91; first compound 0.03162 µM,0.975
same,relative viability,LOU-NH91; first compound 0.3162 µM,0.927
same,relative viability,NCI-H1355; first compound 0.01 µM,1.21
same,relative viability,NCI-H1355; first compound 0.03162 µM,1.07
same,relative viability,NCI-H1355; first compound 0.3162 µM,1.01
same,relative viability,NCI-H1395; first compound 0.03162 µM,1.02
same,relative viability,NCI-H1395; first compound 0.3162 µM,1
same,relative viability,NCI-H1437; first compound 0.01 µM,1.37
same,relative viability,NCI-H1437; first compound 0.03162 µM,1.35
same,relative viability,NCI-H1437; first compound 0.3162 µM,1.4
same,relative viability,NCI-H1734; first compound 0.01 µM,0.803
same,relative viability,NCI-H1734; first compound 0.03162 µM,0.872
same,relative viability,NCI-H1734; first compound 0.3162 µM,0.796
same,relative viability,NCI-H2009; first compound 0.01 µM,1.23
same,relative viability,NCI-H2009; first compound 0.03162 µM,1.26
same,relative viability,NCI-H2009; first compound 0.3162 µM,1.23
same,relative viability,NCI-H2087; first compound 0.01 µM,1.49
same,relative viability,NCI-H2087; first compound 0.03162 µM,1.09
same,relative viability,NCI-H2087; first compound 0.3162 µM,1.02
same,relative viability,NCI-H2170; first compound 0.01 µM,1.16
same,relative viability,NCI-H2170; first compound 0.03162 µM,0.98
same,relative viability,NCI-H2170; first compound 0.3162 µM,0.849
same,relative viability,NCI-H2228; first compound 0.01 µM,1.06
same,relative viability,NCI-H2228; first compound 0.03162 µM,1.26
same,relative viability,NCI-H2228; first compound 0.3162 µM,0.875
same,relative viability,NCI-H2342; first compound 0.01 µM,0.974
same,relative viability,NCI-H2342; first compound 0.03162 µM,1.07
same,relative viability,NCI-H2342; first compound 0.3162 µM,1.05
same,relative viability,NCI-H2405; first compound 0.01 µM,1.04
same,relative viability,NCI-H2405; first compound 0.03162 µM,1.05
same,relative viability,NCI-H2405; first compound 0.3162 µM,1.04
same,relative viability,NCI-H596; first compound 0.01 µM,0.89
same,relative viability,NCI-H596; first compound 0.03162 µM,0.877
same,relative viability,NCI-H596; first compound 0.3162 µM,0.737
same,relative viability,NCI-H647; first compound 0.01 µM,1.24
same,relative viability,NCI-H647; first compound 0.03162 µM,1.24
same,relative viability,NCI-H647; first compound 0.3162 µM,1.44
same,relative viability,NCI-H661; first compound 0.01 µM,1.15
same,relative viability,NCI-H661; first compound 0.03162 µM,1.06
same,relative viability,NCI-H661; first compound 0.3162 µM,1
same,relative viability,SK-LU-1; first compound 0.03162 µM,0.969
same,relative viability,SK-LU-1; first compound 0.3162 µM,0.821
same,relative viability,SK-MES-1; first compound 0.01 µM,0.761
same,relative viability,SK-MES-1; first compound 0.03162 µM,1.05
same,relative viability,SK-MES-1; first compound 0.3162 µM,0.977
